Measured values reported in the CheMixHub viscosity set.
Where “and” joins values, the source holds several entries; their conditions need not be identical. Equal entries are not always repeated.

Experiment: xn = mol fraction of the nth substance listed

C1CC[NH2+]C1.CCCCCCCC(=O)[O-] + O
viscosity [mPa·s], 101 kPa
Settings | x1 = 0.1001 | x1 = 0.1939 | x1 = 0.3059 | x1 = 0.3999 | x1 = 0.5006 | x1 = 0.56 | x1 = 0.7293 | x1 = 0.8443
293.15 K | 19.1 | 30.6 | 44.2 | 53 | 58.7 | 61.3 | 67.6 | 70.6
298.15 K | 17 | 28.7 | 38.7 | 45.6 | 50.2 | 51.77 | 57.23 | 60.69
303.15 K | 15.36 | 22.52 | 32.46 | 37.47 | 40.91 | 42.49 | 46.05 | 48.99
308.15 K | 13.5 | 19.87 | 28.64 | 32.64 | 35.5 | 36.88 | 39.52 | 42.04
313.15 K | 11.56 | 17.09 | 24.55 | 27.65 | 29.82 | 30.62 | 32.72 | 34.71

C=CCC[n+]1ccn(CCCC)c1.[Br-] + O
viscosity [mPa·s], 101.33 kPa
Settings | x1 = 0.0008989 | x1 = 0.00189 | x1 = 0.003585 | x1 = 0.005487 | x1 = 0.007167 | x1 = 0.008848
293.15 K | 1.032 | 1.064 | 1.12 | 1.182 | 1.24 | 1.289
298.15 K | 0.915 | 0.943 | 0.988 | 1.046 | 1.094 | 1.137
303.15 K | 0.818 | 0.844 | 0.883 | 0.931 | 0.975 | 1.011
308.15 K | 0.736 | 0.758 | 0.795 | 0.837 | 0.874 | 0.902
313.15 K | 0.667 | 0.687 | 0.719 | 0.757 | 0.789 | 0.815

C=O + O
viscosity [mPa·s], 101 kPa
Settings | x1 = 0.03 | x1 = 0.062 | x1 = 0.13 | x1 = 0.2 | x1 = 0.29 | x1 = 0.37
293.15 K | 1.13 | 1.26 | 1.54 | 1.95 | – | –
303.15 K | 0.91 | 1.01 | 1.25 | 1.54 | – | –
313.15 K | 0.74 | 0.82 | 1.01 | 1.24 | – | –
323.15 K | 0.61 | 0.68 | 0.83 | 1.01 | 1.61 | 2.11

CC1(C)SC2C(NC(=O)C(N)c3ccccc3)C(=O)N2C1C(=O)O (stereo not given) + O
viscosity, 101 kPa
Settings | x1 = 9e-06 | x1 = 1e-05 | x1 = 2e-05 | x1 = 3.2e-05 | x1 = 3.6e-05 | x1 = 4e-05 | x1 = 5e-05 | x1 = 6.8e-05 | x1 = 7e-05 | x1 = 7.2e-05
305.15 K | 0.7656 mPa·s | 0.7569 mPa·s | 0.7618 mPa·s and 0.763 mPa·s | 0.7637 mPa·s | 0.7729 mPa·s | 0.7702 mPa·s | 0.7649 mPa·s | 0.7656 mPa·s | 0.773 mPa·s | 0.7701 mPa·s
310.15 K | 0.7019 mPa·s | 0.6941 mPa·s | 0.6924 mPa·s and 0.6965 mPa·s | 0.6948 mPa·s | 0.6993 mPa·s | 0.6989 mPa·s | 0.6964 mPa·s | 0.6976 mPa·s | 0.7041 mPa·s | 0.7032 mPa·s
315.15 K | 0.6419 mPa·s | 0.6361 mPa·s | 0.6342 mPa·s and 0.6376 mPa·s | 0.6356 mPa·s | 0.6442 mPa·s | 0.6407 mPa·s | 0.6381 mPa·s | 0.6398 mPa·s | 0.6421 mPa·s | 0.6399 mPa·s

CCC(C)O (stereo not given) + O
Settings | viscosity [mPa·s]
293.15 K, 100 kPa, x1 = 0.58 | 3.807
296 K, 101 kPa, x2 = 0.1 | 3.008
296 K, 101 kPa, x2 = 0.68 | 3.67
297 K, 101 kPa, x2 = 0.3 | 2.923
297 K, 101 kPa, x2 = 0.4 | 3.074
297 K, 101 kPa, x2 = 0.5 | 3.242
297 K, 101 kPa, x2 = 0.6 | 3.416
303 K, 101 kPa, x1 = 0.01 | 0.9465
303 K, 101 kPa, x2 = 0.1 | 2.363
303 K, 101 kPa, x2 = 0.3 | 2.38
303 K, 101 kPa, x2 = 0.4 | 2.495
303 K, 101 kPa, x2 = 0.5 | 2.625
303 K, 101 kPa, x2 = 0.6 | 2.759
303 K, 101 kPa, x2 = 0.68 | 2.853
303 K, 101 kPa, x2 = 0.98 | 1.103
304 K, 101 kPa, x2 = 0.97 | 1.229
305 K, 101 kPa, x2 = 0.2 | 2.185
313 K, 101 kPa, x1 = 0.01 | 0.7564
313 K, 101 kPa, x2 = 0.1 | 1.715
313 K, 101 kPa, x2 = 0.2 | 1.702
313 K, 101 kPa, x2 = 0.3 | 1.739
313 K, 101 kPa, x2 = 0.4 | 1.815
313 K, 101 kPa, x2 = 0.5 | 1.903
313 K, 101 kPa, x2 = 0.6 | 1.993
313 K, 101 kPa, x2 = 0.68 | 2.06
313 K, 101 kPa, x2 = 0.97 | 0.97
313 K, 101 kPa, x2 = 0.98 | 0.8638
323 K, 101 kPa, x1 = 0.01 | 0.622
323 K, 101 kPa, x2 = 0.1 | 1.28
323 K, 101 kPa, x2 = 0.2 | 1.28
323 K, 101 kPa, x2 = 0.3 | 1.312
323 K, 101 kPa, x2 = 0.4 | 1.364
323 K, 101 kPa, x2 = 0.5 | 1.427
323 K, 101 kPa, x2 = 0.6 | 1.492
323 K, 101 kPa, x2 = 0.68 | 1.541
323 K, 101 kPa, x2 = 0.97 | 0.773
323 K, 101 kPa, x2 = 0.98 | 0.6986
323.15 K, 100 kPa, x1 = 0.02 | 1.324
323.15 K, 100 kPa, x1 = 0.58 | 1.517

CCCCOCCOCCO + O
viscosity [mPa·s], 101 kPa
Settings | 293.15 K | 303.15 K | 313.15 K | 323.15 K
x1 = 0.01221 | 1.52 | 1.15 | 0.908 | 0.738
x1 = 0.02709 | 2.26 | 1.64 | 1.27 | 1.02
x1 = 0.04539 | 3.18 | 2.31 | 1.76 | 1.38
x1 = 0.0689 | 4.35 | 3.1 | 2.32 | 1.79
x1 = 0.09981 | 5.57 | 3.93 | 2.88 | 2.19
x1 = 0.1428 | 6.78 | 4.74 | 3.44 | –
x1 = 0.2062 | 7.94 | – | 3.88 | 2.87
x1 = 0.3078 | 8.42 | 5.78 | – | 3.07
x1 = 0.4 | – | – | – | 3.195
x1 = 0.4037 | 8.24 | 5.75 | – | 3.08
x1 = 0.5015 | 7.84 | 5.55 | 4.04 | 3.02
x1 = 0.6107 | 7.35 | 5.27 | 3.86 | 2.91
x1 = 0.705 | 6.94 | 5 | 3.7 | 2.81
x1 = 0.7958 | 6.56 | 4.76 | 3.54 | 2.71
x1 = 0.8932 | 6.2 | 4.49 | 3.38 | 2.61

CCCCn1cc[n+](C)c1.F[B-](F)(F)F + O
101 kPa
Settings | viscosity [mPa·s]
298.15 K, x2 = 0.1036 | 80.9
298.15 K, x2 = 0.6979 | 9.53
308.15 K, x2 = 0.6004 | 8.69
313.15 K, x2 = 0.5014 | 8.98
318.15 K, x2 = 0.4001 | 9.72
318.15 K, x2 = 0.5014 | 7.77
323.15 K, x2 = 0.4001 | 8.41

CO/N=C(\C(=O)N[C@@H]1C(=O)N2C(C(=O)O)=C(C[N+]3(C)CCCC3)CS[C@H]12)c1csc(N)n1.Cl.[Cl-] + O
Settings | viscosity [mPa·s]
293.15 K, 101.33 kPa, x1 = 0.002414 | 1.235

O=C[C@H](O)[C@H](O)[C@H](O)CO + O
298.15 K, 101 kPa
Settings | viscosity [mPa·s]
x1 = 0.003513 | 0.95
x1 = 0.01898 | 1.292
